Measurements: ChEMBL document CHEMBL1150091, “Cytotoxic compounds from a two-sponge association” (J Nat Prod, 1995)
In brackets after ≈: the same amount, converted by molar mass. Activity calls are given as the source filed them. The calls are words filed in the database; no cut-off is given here.

Tests used:
[1] = test system: Nucleic Acid; experiment: Induction of strand scission activity in bacteriophage X174RF1 DNA infected in Escherichia coli; assay type: nucleic-acid assay; conditions: unidentified phage
[2] = species on record: Rattus norvegicus; experiment: Inhibition of NADH dehydrogenase and oxidase activity of electron transport protein complex 1 in rat […] assessed as blockade of reduction-oxidation process; assay type: cell membranes
[3] = test system: Mus musculus; experiment: (§1) Toxicity in ip dosed mouse; assay type: organism-based; conditions: in vivo
[4] = test system: P388; experiment: Cytotoxicity against mouse P388 cells; assay type: functional; conditions: read-out: LC50 (the source's name)
[5] = test system: MDA-N; experiment: Cytotoxicity against human MDA-N cells; assay type: functional; conditions: read-out: LC50 (the source's name)
[6] = test system: SR; experiment: Cytotoxicity against human SR cells; assay type: functional; conditions: read-out: LC50 (the source's name)
[7] = test system: HL-60(TB); experiment: Cytotoxicity against human HL-60(TB) cells; assay type: functional; conditions: read-out: LC50 (the source's name)
[8] = test system: K562; experiment: Cytotoxicity against human K562 cells; assay type: functional; conditions: read-out: LC50 (the source's name)
[9] = test system: OVCAR-3; experiment: Cytotoxicity against human OVCAR-3 cells; assay type: functional; conditions: read-out: LC50 (the source's name)
[10] = test system: EKVX; experiment: Cytotoxicity against human EKVX cells; assay type: functional; conditions: read-out: LC50 (the source's name)
[11] = Cytotoxicity against human MCF7/ADR cells; assay type: functional; conditions: NCI/ADR-RES, read-out: LC50 (the source's name)
[12] = test system: A498; experiment: Cytotoxicity against human A498 cells; assay type: functional; conditions: read-out: LC50 (the source's name)
[13] = test system: UO-31; experiment: Cytotoxicity against human UO31 cells; assay type: functional; conditions: read-out: LC50 (the source's name)
[14] = test system: CCRF-CEM; experiment: Cytotoxicity against human CCRF-CEM cells; assay type: functional; conditions: read-out: LC50 (the source's name)
[15] = test system: HCC 2998; experiment: Cytotoxicity against human HCC2998 cells; assay type: functional; conditions: read-out: LC50 (the source's name)
[16] = test system: SK-MEL-5; experiment: Cytotoxicity against human SK-MEL-5 cells; assay type: functional; conditions: read-out: LC50 (the source's name)
[17] = test system: OVCAR-8; experiment: Cytotoxicity against human OVCAR8 cells; assay type: functional; conditions: read-out: LC50 (the source's name)
[18] = test system: BT-549; experiment: Cytotoxicity against human BT549 cells; assay type: functional; conditions: read-out: LC50 (the source's name)
[19] = test system: NCI-H460; experiment: Cytotoxicity against human NCI-H460 cells; assay type: functional; conditions: read-out: LC50 (the source's name)
[20] = test system: SW-620; experiment: Cytotoxicity against human SW620 cells; assay type: functional; conditions: read-out: LC50 (the source's name)
[21] = test system: A549; experiment: Cytotoxicity against human A549 cells; assay type: functional; conditions: read-out: LC50 (the source's name)
[22] = test system: NCI-H322M; experiment: Cytotoxicity against human NCI-H322M cells; assay type: functional; conditions: read-out: LC50 (the source's name)
[23] = test system: HOP-62; experiment: Cytotoxicity against human HOP62 cells; assay type: functional; conditions: read-out: LC50 (the source's name)
[24] = test system: MOLT-4; experiment: Cytotoxicity against human MOLT4 cells; assay type: functional; conditions: read-out: LC50 (the source's name)
[25] = test system: M14; experiment: Cytotoxicity against human M14 cells; assay type: functional; conditions: read-out: LC50 (the source's name)
[26] = test system: LOX IMVI; experiment: Cytotoxicity against human LOXIMVI cells; assay type: functional; conditions: read-out: LC50 (the source's name)
[27] = test system: SNB-19; experiment: Cytotoxicity against human SNB19 cells; assay type: functional; conditions: read-out: LC50 (the source's name)
[28] = test system: SK-MEL-28; experiment: Cytotoxicity against human SK-MEL-28 cells; assay type: functional; conditions: read-out: LC50 (the source's name)
[29] = test system: NCI-H23; experiment: Cytotoxicity against human NCI-H23 cells; assay type: functional; conditions: read-out: LC50 (the source's name)
[30] = test system: SF-539; experiment: Cytotoxicity against human SF539 cells; assay type: functional; conditions: read-out: LC50 (the source's name)
[31] = test system: KM12; experiment: Cytotoxicity against human KM12 cells; assay type: functional; conditions: read-out: LC50 (the source's name)
[32] = Cytotoxicity against human Hs 578T cells; assay type: functional; conditions: read-out: LC50 (the source's name)
[33] = test system: MDA-MB-435; experiment: Cytotoxicity against human MDA-MB-435 cells; assay type: functional; conditions: read-out: LC50 (the source's name)
[34] = test system: RXF 393; experiment: Cytotoxicity against human […] cells; assay type: functional; conditions: read-out: LC50 (the source's name)
[35] = test system: T47D; experiment: Cytotoxicity against human T47D cells; assay type: functional; conditions: read-out: LC50 (the source's name)
[36] = test system: HT-29; experiment: Cytotoxicity against human HT-29 cells; assay type: functional; conditions: read-out: LC50 (the source's name)
[37] = test system: 786-0; experiment: Cytotoxicity against human 786-0 cells; assay type: functional; conditions: read-out: LC50 (the source's name)
[38] = test system: U-251; experiment: Cytotoxicity against human U251 cells; assay type: functional; conditions: read-out: LC50 (the source's name)
[39] = test system: DU-145; experiment: Cytotoxicity against human DU145 cells; assay type: functional; conditions: read-out: LC50 (the source's name)
[40] = test system: PC-3; experiment: Cytotoxicity against human PC3 cells; assay type: functional; conditions: read-out: LC50 (the source's name)
[41] = test system: Malme-3M; experiment: Cytotoxicity against human MALME-3M cells; assay type: functional; conditions: read-out: LC50 (the source's name)
[42] = test system: MCF7; experiment: Cytotoxicity against human MCF7 cells; assay type: functional; conditions: read-out: LC50 (the source's name)
[43] = test system: NCI-H522; experiment: Cytotoxicity against human NCI-H522 cells; assay type: functional; conditions: read-out: LC50 (the source's name)
[44] = test system: TK-10; experiment: Cytotoxicity against human TK10 cells; assay type: functional; conditions: read-out: LC50 (the source's name)
[45] = test system: HCT-116; experiment: Cytotoxicity against human HCT116 cells; assay type: functional; conditions: read-out: LC50 (the source's name)
[46] = test system: NCI-H226; experiment: Cytotoxicity against human NCI-H226 cells; assay type: functional; conditions: read-out: LC50 (the source's name)
[47] = test system: UACC-257; experiment: Cytotoxicity against human UACC257 cells; assay type: functional; conditions: read-out: LC50 (the source's name)
[48] = test system: COLO 205; experiment: Cytotoxicity against human COLO205 cells; assay type: functional; conditions: read-out: LC50 (the source's name)
[49] = test system: SK-MEL-2; experiment: Cytotoxicity against human SK-MEL-2 cells; assay type: functional; conditions: read-out: LC50 (the source's name)
[50] = test system: ACHN; experiment: Cytotoxicity against human ACHN cells; assay type: functional; conditions: read-out: LC50 (the source's name)
[51] = test system: OVCAR-4; experiment: Cytotoxicity against human OVCAR4 cells; assay type: functional; conditions: read-out: LC50 (the source's name)
[52] = test system: SF-295; experiment: Cytotoxicity against human SF295 cells; assay type: functional; conditions: read-out: LC50 (the source's name)
[53] = Toxicity in Artemia salina; assay type: organism-based; conditions: in vivo
[54] = test system: OVCAR-5; experiment: Cytotoxicity against human OVCAR5 cells; assay type: functional; conditions: read-out: LC50 (the source's name)
[55] = test system: HOP-92; experiment: Cytotoxicity against human HOP92 cells; assay type: functional; conditions: read-out: LC50 (the source's name)
[56] = test system: MDA-MB-231; experiment: Cytotoxicity against human MDA-MB-231 cells; assay type: functional; conditions: read-out: LC50 (the source's name)
[57] = test system: UACC-62; experiment: Cytotoxicity against human UACC62 cells; assay type: functional; conditions: read-out: LC50 (the source's name)
[58] = as §1; assay type: organism-based; conditions: in vivo
[59] = test system: SF-268; experiment: Cytotoxicity against human SF268 cells; assay type: functional; conditions: read-out: LC50 (the source's name)
[60] = test system: HCT-15; experiment: Cytotoxicity against human HCT15 cells; assay type: functional; conditions: read-out: LC50 (the source's name)
[61] = test system: IGROV-1; experiment: Cytotoxicity against human IGROV1 cells; assay type: functional; conditions: read-out: LC50 (the source's name)
[62] = Cytotoxicity against human […] cells; assay type: functional; conditions: read-out: LC50 (the source's name)
[63] = test system: SK-OV-3; experiment: Cytotoxicity against human SKOV3 cells; assay type: functional; conditions: read-out: LC50 (the source's name)
[64] = test system: CAKI-1; experiment: Cytotoxicity against human Caki1 cells; assay type: functional; conditions: read-out: LC50 (the source's name)

CC1=C/[C@H](C)C[C@@]2(C)CC[C@@H](O2)[C@@]23CC[C@@](C)(C[C@@H](O2)[C@H]2O[C@](C)(CC2=O)[C@@H](O)[C@@H]2CC[C@@]4(CCC[C@H](O4)[C@@H](C)C(=O)O[C@@H]4C[C@@H]([C@@]5(O)OCC[C@@H](C)[C@H]5O)O[C@@H]4\C=C\1)O2)O3
Activity [1]: inactive
Activity [2]: inactive

COc1cccc2c1C(=O)c1c(O)c3c(c(O)c1C2=O)C[C@@](O)(C(=O)CO)C[C@@H]3O[C@H]1C[C@H](N)[C@H](O)[C@H](C)O1 [DOXORUBICIN]
LD50 [3]: 13 µg/mL

O=c1[nH]cc(F)c(=O)[nH]1 [FLUOROURACIL]
CC50 [4]: 0.2 µg/mL (≈ 1.54 µM)

CC1=C\[C@H](C)C[C@@]2(C)CC[C@@H](O2)[C@@]23CC[C@@](C)(C[C@@H](O2)[C@H]2O[C@](C)(CC2=O)[C@@H](O)[C@@H]2CC[C@@]4(CCC[C@H](O4)[C@@H](C)C(=O)O[C@@H]4C[C@@H]([C@@]5(O)OCC[C@@H](C)[C@H]5O)O[C@@H]4\C=C\1)O2)O3 [PECTENOTOXIN II]
CC50 [5]: > 10 µM
CC50 [6]: > 10 µM
CC50 [7]: > 10 µM
CC50 [8]: > 10 µM
CC50 [9]: 0.0616 µM
CC50 [10]: 0.062 µM
CC50 [11]: > 10 µM
CC50 [12]: 0.0341 µM
CC50 [13]: 0.0563 µM
CC50 [14]: > 10 µM
CC50 [15]: > 10 µM
CC50 [16]: 0.0552 µM
CC50 [17]: > 10 µM
CC50 [18]: 0.0627 µM
CC50 [19]: > 10 µM
CC50 [20]: > 10 µM
CC50 [21]: > 10 µM
CC50 [22]: > 10 µM
CC50 [23]: 0.0251 µM
CC50 [24]: > 10 µM
CC50 [25]: 4.73 µM
CC50 [26]: > 10 µM
CC50 [27]: > 10 µM
CC50 [28]: 0.0423 µM
CC50 [29]: > 10 µM
CC50 [30]: > 10 µM
CC50 [31]: > 10 µM
CC50 [32]: 0.0779 µM
CC50 [33]: > 10 µM
CC50 [34]: 0.03 µM
CC50 [35]: > 10 µM
CC50 [36]: > 10 µM
CC50 [37]: > 10 µM
CC50 [38]: > 10 µM
CC50 [39]: > 10 µM
CC50 [40]: > 10 µM
CC50 [41]: 0.123 µM
CC50 [42]: > 10 µM
CC50 [43]: > 10 µM
CC50 [44]: 0.0725 µM
CC50 [45]: 0.0733 µM
CC50 [46]: > 10 µM
CC50 [47]: > 10 µM
CC50 [48]: 0.00782 µM
CC50 [49]: > 10 µM
CC50 [50]: > 10 µM
CC50 [51]: > 10 µM
CC50 [52]: 0.0777 µM
LC50 [53]: < 0.1 µg/mL
CC50 [54]: > 10 µM
CC50 [55]: 0.807 µM
CC50 [56]: > 10 µM
CC50 [57]: > 10 µM
LD50 [58]: 0.26 mg/kg
CC50 [59]: 0.154 µM
CC50 [60]: > 10 µM
CC50 [61]: 0.0673 µM
CC50 [62]: > 10 µM
CC50 [63]: > 10 µM
CC50 [64]: 0.0191 µM

O=C(NCCSSCCNC(=O)/C(Cc1ccc(O)c(Br)c1)=N/O)/C(Cc1ccc(O)c(Br)c1)=N/O [PSAMMAPLIN A]
CC50 [21]: 6.43 µg/mL
CC50 [4]: 0.64 µg/mL (≈ 0.963 µM)
LC50 [53]: 4 µg/mL (≈ 6.02 µM)
